Read-outs that look alike come from different tables or passages of the source.
Columns and labels:
F508del/F508del CFTR = molecular target: T1, F508del/F508del CFTR (Homo sapiens, UniProt P13569, DEL508-508); assay: Trans-Epithelial Current Clamp (TECC) assay using primary human bronchial epithelial cells; type: cell-based; conditions: for Emax (% Dual): maximum percent activity relative to positive control (co-corrector 0.15 μM + potentiator 0.45 μM = 100%); for EC50: primary hBE cells F508del/F508del, test corrector with co-corrector and potentiator, 18-24 hours, equivalent CFTR current
T1 construct: cells isolated from CF patients with the homozygous mutation; endogenous in cells; host or cells: primary human bronchial epithelial (hBE) cells from CF patients homozygous for F508del
T1 sequence (P13569 with tags, fused parts or gaps DEL508-508): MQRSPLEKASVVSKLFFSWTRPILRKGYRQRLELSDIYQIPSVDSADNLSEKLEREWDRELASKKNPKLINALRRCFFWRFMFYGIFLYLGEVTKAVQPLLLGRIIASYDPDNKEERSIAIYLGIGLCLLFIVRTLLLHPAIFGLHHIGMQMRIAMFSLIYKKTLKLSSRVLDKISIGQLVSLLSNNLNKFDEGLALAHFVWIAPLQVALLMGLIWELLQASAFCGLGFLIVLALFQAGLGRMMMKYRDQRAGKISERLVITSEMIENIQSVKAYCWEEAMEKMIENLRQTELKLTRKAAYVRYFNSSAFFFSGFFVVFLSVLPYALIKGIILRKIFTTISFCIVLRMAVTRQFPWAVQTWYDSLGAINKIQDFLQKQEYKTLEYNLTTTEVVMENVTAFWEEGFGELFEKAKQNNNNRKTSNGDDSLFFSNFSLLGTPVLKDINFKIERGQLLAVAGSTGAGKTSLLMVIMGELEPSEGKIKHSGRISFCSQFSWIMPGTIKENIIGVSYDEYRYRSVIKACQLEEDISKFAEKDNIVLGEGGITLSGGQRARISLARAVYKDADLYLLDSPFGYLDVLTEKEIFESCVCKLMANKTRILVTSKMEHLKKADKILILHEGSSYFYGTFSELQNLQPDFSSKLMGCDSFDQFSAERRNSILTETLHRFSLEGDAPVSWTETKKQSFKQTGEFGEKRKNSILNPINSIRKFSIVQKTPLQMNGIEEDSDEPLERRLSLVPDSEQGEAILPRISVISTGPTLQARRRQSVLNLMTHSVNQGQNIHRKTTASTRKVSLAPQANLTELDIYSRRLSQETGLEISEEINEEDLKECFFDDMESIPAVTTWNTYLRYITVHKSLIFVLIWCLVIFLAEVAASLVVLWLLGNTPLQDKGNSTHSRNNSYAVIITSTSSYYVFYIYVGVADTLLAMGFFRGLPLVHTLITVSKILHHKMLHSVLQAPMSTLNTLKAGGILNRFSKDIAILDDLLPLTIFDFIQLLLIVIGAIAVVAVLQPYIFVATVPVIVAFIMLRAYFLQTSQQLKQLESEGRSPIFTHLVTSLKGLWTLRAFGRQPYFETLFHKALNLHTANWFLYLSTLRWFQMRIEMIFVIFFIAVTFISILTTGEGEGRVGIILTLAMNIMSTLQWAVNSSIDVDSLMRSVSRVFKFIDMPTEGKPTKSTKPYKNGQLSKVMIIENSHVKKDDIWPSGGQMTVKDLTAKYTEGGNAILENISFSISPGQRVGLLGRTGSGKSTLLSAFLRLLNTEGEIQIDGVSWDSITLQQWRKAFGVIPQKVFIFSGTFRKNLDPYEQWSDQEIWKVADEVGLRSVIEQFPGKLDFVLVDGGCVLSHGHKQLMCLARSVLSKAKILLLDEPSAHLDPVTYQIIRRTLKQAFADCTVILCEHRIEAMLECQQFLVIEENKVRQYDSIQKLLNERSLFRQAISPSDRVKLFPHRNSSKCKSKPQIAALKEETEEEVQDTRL
From the text: A cell-based assay was developed using the primary human bronchial epithelial cells (hBE cells) with F508del/F508del CFTR and other mutations.
Primary human bronchial epithelial (hBE) cells from CFTR patients with homozygous F508del/F508del mutation were expanded from 1×10^6 to 250×10^6 cells (Neuberger, T et al., 2011, Methods Mol Biol 741:39-54). For this purpose, cells isolated from CF patients with the homozygous mutation, procured from the CF center tissue procurement and cell culture core at the Marsico Lung Institute at UNC (Randell), the Cystic Fibrosis translational research center at McGill University (University), and Rosalind Franklin University Medical School (RFUMS) were seeded onto 24 well Corning (Cat #3378) filter plates that were coated with 3T3 conditioned media and grown at an air-liquid interface for 35 days using an Ultroser® G supplemented differentiation media. All the primary human bronchial epithelial cells were collected in accordance with institutional review board approval protocols. Apical surface mucus was removed 72 hours before the experiment by incubating the apical surface of the cells for 30 minutes with 3 mM dithiothreitol (DTT) prepared in Dulbecco's phosphate buffered saline (DPBS) with Ca^2+ and Mg^2+. This was followed with aspiration of the mucus from the apical surface along with DPBS. The apical surface was re-washed with phosphate buffered saline (PBS) incubated for 30 minutes followed with aspiration. These hBE cells were then incubated with the desired concentrations of the test C2 corrector compounds along with co-corrector, 4-[(2R,4R)-4-({[1-(2,2-difluoro-1,3-benzodioxol-5-yl)cyclopropyl]carbonyl}amino)-7-(difluoromethoxy)-3,4-dihydro-2H-chromen-2-yl]benzoic acid and potentiator, (5-{3-amino-5-[4-(trifluoromethoxy)benzene-1-sulfonyl]pyridin-2-yl}-1,3,4-oxadiazol-2-yl)methanol, for 18-24 hours at 37° C., 5% CO2. The desired concentrations of the correctors and potentiator compounds were prepared from the 10 mM stocks in differentiation media and were always applied on the basolateral side of the epithelial cells. We also used an assay format where a fixed concentration of potentiator was added chronically along with the corrector compounds. This chronic treatment with the potentiator helped eliminate any interaction that might happen with CFTR modulators (correctors and potentiators) and thereby determined the true efficacy of the modulator combinations reflective of clinical relevance.
The assay uses a Transepithelial Current Clamp (TECC) (Vu, C B et al., 2017; J Med Chem 60:458-473) instrument that can measure the functionality of the mutated channel by measuring the equivalent CFTR current (IEQ) generated by the polarized primary epithelial cells. We used a TECC-24 with a 24-channel electrode manifold allowing for the simultaneous measurement of the transepithelial voltage, VT, and transepithelial resistance, RT, under current clamp conditions, from 24 filters using a 24 well Costar filter plate. The design of the filters in the 24 well filter plates was exactly the same as the design of an individual Transwell filter used in the classical Ussing Chamber with a surface area of 0.33 cm^2. Each measured VT values were corrected for the electrode offset potential measured using buffer alone in a separate plate, and each measured RT values were then corrected for the combined solution series and empty filter resistances. The corrected VT and RT values were then used to calculate the equivalent current, IEQ using Ohm's law (IEQ=VT/RT). The area under the curve (AUC) for the time period between the forskolin peak IEQ response and at the time of bumetanide addition was also calculated using a one-third trapezoid method, in addition to calculating the IEQ. The assay was run in a 24-well format and all 24-wells were measured at the same time point giving a higher throughput for this assay. […]

F508delCFTR = molecular target: T2, F508delCFTR (Homo sapiens, UniProt P13569, DEL508-508); assay: Cell Surface Expression-Horse Radish Peroxidase (CSE-HRP) assay in CFBE41o-F508delCFTR-HRP cells; type: cell-based; conditions: for EC50: CFBE41o-F508delCFTR-HRP cells, 18-24 hours at 33° C.; for Maximum % activity (with co-corrector) / Emax: normalized to on-plate positive control; for Emax: read-out: Maximum % activity (without co-corrector)
T2 construct: expressed in transfected cells; host or cells: CFBE41o- human lung derived epithelial cell line, doxycycline-induced expression
T2 sequence (P13569 with tags, fused parts or gaps DEL508-508): as above
Experimental: A cellular assay for measuring the F508delCFTR cell surface expression after correction with test compounds either without or with a co-corrector (2 μM of 3-[(2R,4R)-4-({[1-(2,2-difluoro-1,3-benzodioxol-5-yl)cyclopropyl]carbonyl}amino)-7-methoxy-3,4-dihydro-2H-chromen-2-yl]benzoic acid), was developed in human lung derived epithelial cell line (CFBE41o-) (Veit G et al, (2012) Mol Biol Cell. 23(21): 4188-4202). The development was achieved by expressing the F508delCFTR mutation along with a horseradish peroxidase (HRP) in the fourth exofacial loop, and then measuring the HRP activity using luminescence readout from these cells, CFBE41o-F508delCFTR-HIRP, that were incubated overnight with the test corrector compounds, either without or with the co-corrector. For this primary assay, the CFBE41o-F508delCFTR-HRP cells were plated in 384-well plates (Greiner Bio-one; Cat 781080) at 4,000 cells/well along with 0.5 μg/mL doxycycline to induce the F508delCFTR-HRP expression and further incubated at 37° C., […] for 68-72 hours. The test compounds were then added either without or with a co-corrector at the required concentrations and further incubated for 18-24 hours at 33° C. The highest concentration tested was 20 μM or 30 μM (GI-1 to GIII-36) with an 8-point concentration response curve using a 3-fold dilution in both the test compound without or with the co-corrector. Three replicate plates were run to determine one EC50. All plates contained negative controls (dimethyl sulfoxide, DMSO) and positive control (2 μM or 3 μM (GI-1 to GIII-36) of 3-[(2R,4R)-4-({[1-(2,2-difluoro-1,3-benzodioxol-5-yl)cyclopropyl]carbonyl}amino)-7-methoxy-3,4-dihydro-2H-chromen-2-yl]benzoic acid) as well as on-plate concentration response of the positive control. Post incubation, the plates were washed 5× times with Dulbecco's phosphate buffered saline (DPBS), followed by the addition of the HRP substrate, luminol (50 μL), and measuring the HRP activity using luminescence readout on EnVision® Multilabel Plate Reader (Perkin Elmer; product number 2104-0010). The raw counts from the experiment were analyzed using Accelrys® Assay Explorer v3.3.
Z′ greater than 0.5 was used as passing quality control criteria for the plates. The Z′ is defined as:
1−[3*SDPositive Control+3*SDNegative Control/Absolute(MeanPositive Control−MeanNegative Control)]
The % activity measured at each of the 8 test concentrations of the test compound added either without or with a co-corrector (2 μM or 3 μM (GI-1 to GIII-36) of 3-[(2R,4R)-4-({[1-(2,2-difluoro-1,3-benzodioxol-5-yl)cyclopropyl]carbonyl}amino)-7-methoxy-3,4-dihydro-2H-chromen-2-yl]benzoic acid) was normalized to the on-plate positive control using the following formulae:
% activity (Test compound without co-corrector)=[(test compound without co-corrector response−DMSO response)/(positive control response−DMSO response)]*100
% activity (Test compound with co-corrector)=[(test compound with co-corrector response−DMSO response)/(positive control response−DMSO response)]*100
The maximum % activity achieved for the test compound either without or with a co-corrector at any tested concentration is presented in Table 3 along with the respective EC50's calculated using the following general sigmoidal curve with variable Hill slope equation (described as Model 42 in the Accelrys® Assay Explorer v3.3 software):
General sigmoidal curve with concentration, response, top, bottom, EC50 and Hill slope. This model describes a sigmoidal curve with an adjustable baseline, a. The equation can be used to fit curves where response is either increasing or decreasing with respect to the independent variable, “x”.

[1] = with co-corrector 2 μM, read-out: EC50 (with co-corrector)
[2] = without co-corrector, read-out: EC50 (without co-corrector)

Row | SMILES | Emax (% Dual) (F508del/F508del CFTR) | EC50 (F508del/F508del CFTR) [nM] | EC50 (F508delCFTR; [1]) [nM] | Maximum % activity (with co-corrector) (F508delCFTR; with co-corrector 2 μM) [%] | EC50 (F508delCFTR; [2]) [nM] | Emax (F508delCFTR; without co-corrector) [%]
1 | CCc1ccc(Oc2cccnc2OC)c([C@@]2(C(=O)NS(=O)(=O)c3cccc4nc(C)ccc34)CCCO2)c1 [Example 25, (2R)-2-{5-ethyl-2-[(2-methoxypyridin-3-yl)oxy]phenyl}-N-(2-methylquinoline-5-sulfonyl)oxolane-2-carboxamide] | 279 | 30.6 | 580 | 954 | 1450 | 476
2 | CCOc1ccc(C)cc1[C@]1(C(=O)NS(=O)(=O)c2cccc3nc(C)ccc23)CCCO1 [Example 1, (2S)-2-(2-ethoxy-5-methylphenyl)-N-(2-methylquinoline-5-sulfonyl)oxolane-2-carboxamide] | 226 | 1710 | 3780 | 546 | 4940 | 233
3 | COc1ccc(C)cc1[C@@]1(C(=O)NS(=O)(=O)c2cccc3nc(C)ccc23)C[C@@H](C)CO1 [Example 19, (2R,4R)-2-(2-methoxy-5-methylphenyl)-4-methyl-N-(2-methylquinoline-5-sulfonyl)oxolane-2-carboxamide] | 253 | 33 | 720 | 850 | 880 | 339
4 | COc1ccc([C@H]2CO[C@@](C(=O)NS(=O)(=O)c3cccc4nc(C)ccc34)(c3cc(C)ccc3OC)C2)cc1 [Example 45, (2R,4S)-2-(2-methoxy-5-methylphenyl)-4-(4-methoxyphenyl)-N-(2-methylquinoline-5-sulfonyl)oxolane-2-carboxamide] | 229 | 36.3 | 440 | 911 | 610 | 386
5 | COc1ccc(C)cc1[C@]1(C(=O)NS(=O)(=O)c2cccc3nc(C)ccc23)C[C@@H](c2ccccc2)CO1 [Example 36, (2S,4S)-2-(2-methoxy-5-methylphenyl)-N-(2-methylquinoline-5-sulfonyl)-4-phenyloxolane-2-carboxamide] | 255 | 31 | 810 | – | 1590 | 443
6 | COc1ccc(C)cc1[C@@]1(C(=O)NS(=O)(=O)c2cccc3nc(C)ccc23)CC2(CC2)CO1 [Example 15, (6R)-6-(2-methoxy-5-methylphenyl)-N-(2-methylquinoline-5-sulfonyl)-5-oxaspiro[2.4]heptane-6-carboxamide] | 178 | 123 | 1010 | 708 | 1510 | 307

Molecules with a lower EC50 (F508del/F508del CFTR), results first:

Row | Emax (% Dual) (F508del/F508del CFTR) | EC50 (F508del/F508del CFTR) [nM] | EC50 (F508delCFTR; [1]) [nM] | Maximum % activity (with co-corrector) (F508delCFTR; with co-corrector 2 μM) [%] | EC50 (F508delCFTR; [2]) [nM] | Emax (F508delCFTR; without co-corrector) [%] | SMILES
7 | 274 | 19.4 | 270 | – | 760 | 872 | COc1ccc(C)cc1[C@@]1(C(=O)NS(=O)(=O)c2cccc3nc(N)ccc23)C[C@H](c2ccccc2)CO1 [Example 41, (2R,4R)—N-(2-aminoquinoline-5-sulfonyl)-2-(2-methoxy-5-methylphenyl)-4-phenyloxolane-2-carboxamide]
8 | 244 | 14.1 | 330 | – | 980 | 679 | COc1ccccc1[C@H]1CO[C@@](C(=O)NS(=O)(=O)c2cccc3nc(C)ccc23)(c2cc(C)ccc2OC)C1 [Example 38, (2R,4S)-2-(2-methoxy-5-methylphenyl)-4-(2-methoxyphenyl)-N-(2-methylquinoline-5-sulfonyl)oxolane-2-carboxamide]
9 | 229 | 11.5 | 1560 | – | 2660 | 931 | CCc1ccc(Oc2ccccc2)c(C2(C(=O)NS(=O)(=O)c3cccc4nc(C)ccc34)CCCO2)c1 (centres unmarked) [Example 17, 2-(5-ethyl-2-phenoxyphenyl)-N-(2-methylquinoline-5-sulfonyl)oxolane-2-carboxamide]
